melting point [°C]	Structure (SMILES)
222	Cc1nn(-c2c(Cl)cc(Cl)cc2Cl)c(N)c1C(=O)c1ccccc1Cl [Example 4, 5-Amino-4-(2-chlorobenzoyl)-3-methyl-1-(2,4,6-trichlorophenyl) pyrazole]
200 to 202	COc1ccccc1C(=O)c1c(SC)nn(-c2c(Cl)cc(Cl)cc2Cl)c1N [Example 3, 5-Amino-4-(2-methoxybenzoyl)-3-methylthio-1-(2,4,6-trichlorophenyl)pyrazole]

— patent publication US6448265B1, “Pyrazoles and pyrazolopyrimidines having CRF antagonistic activity” (Pfizer, Inc., priority 1992, dated 2002)
